Where two headings read alike, the source gives them in different places.
Columns and labels:
CRBN_C287 = biological target: T1, CRBN_C287 (Homo sapiens, UniProt Q96SW2); assay: CRBN C287 inhibition, probe labeling in lysate (Example 42); format: binding; settings: for CRBN_C287 inhibition, result in words: CRBN_C287, lysate 1 h; for IC50: TE50, CRBN_C287, lysate 1 h; for inhibition at 500 µM: lysate, 1 h, read-out: % inh @ 500 uM (CRBN_C287, lysate 1 h)
T1 construct: endogenous in cells; host or cells: cell lysate
Protocol: The following 96-well sample prep protocol was used for sample preparation.
Cells were resuspended in cold PBS on ice and sonicated with a probe sonicator to achieve lysis. 200 μL of lysate containing 5 mg/ml proteome was treated with 2 μL of 100× compound stock in a 2-mL deep-well plate. The treated lysate was subsequently incubate at 25° C. for 1 hr with shaking at 600 rpm. The treated lysate was further incubated with 2 μL of 10 mM desthiobiotin iodoacetamide probe at 25° C. for 1 hr with shaking at 600 rpm. […] 1.7 mL ice-cold acetone was added to each well and incubated at −20° C. for 2 hr, followed by max speed (4200 rpm) spin for 45 min. Acetone was then decanted and the plates were blotted to remove acetone. The plates were then dried in open air for 20 minutes. After drying, the plates were then covered with foil seal and stored at −80° C. overnight.
The next day, samples were re-suspended in 90 μL of solution of 9M urea, 50 mM ammonium bicarbonate and 10 mM DTT by incubating at 65° C. for 20 min with shaking at 1500 rpm. […] The samples were then incubated at 37° C. for 30 min with shaking at 600 rpm.
ZEBA desalting plates were equilibrated 4 times using 250 μL of 2M urea, 50 mM ammonium bicarbonate solution followed by centrifugation at 1500 rpm for 2 minutes. After equilibration was complete, samples were applied to ZEBA desalting plate and spin at 1500 rpm for 2 min on top of 1 mL 96-well deep-well collection plate to buffer exchange samples. 4 μL of solution containing 25 mM CaCl2 and 0.25 mg/mL trypsin was added to the plate and the plate was then incubated at 37° C. for 2 hrs with shaking at 600 rpm. 300 μL of solution containing 5% high-capacity streptavidin agarose slurry in 25 mM Tris-HCl pH 7.5, 150 mM NaCl, and 0.1% NP-40 then added. The plate was incubated at 25° C. for 2 hrs with shaking at 600 rpm. Samples were transferred to 25 μm filter plate and spin at 1000 rpm for 2 min. Samples were then washed 3 times with 0.75 mL of wash buffer (25 mM Tris-HCl pH 7.5, 150 mM NaCl, and 0.1% NP-40) followed by washing 3 times with 0.75 mL PBS, and then 4 times with 0.75 mL water. After the washing step, samples were eluted into polypropylene 96-well plate by addition of 250 μL of 50% MeCN/water, 0.1% formic acid and allowed to gravity drip for 10 min, followed by centrifugation at 1000 rpm for 2 min. Speedvac was used to dry the plates at about 45° C. for […]. Then the plates were covered with foil seal and stored at −20° C.
Then add 30 μL of 0.1% formic acid solution was added and the plate was covered and incubated at 42° C. for 10 minutes with shaking at 600 rpm. Seal plate was then sealed with a 96-well silicon mat for analysis.

CRBN Cys287 = biological target: T2, CRBN Cys287 (Homo sapiens, UniProt Q96SW2); assay: Inhibition of iodoacetamide probe labeling of CRBN cysteines, cell lysate (Table 3A); format: binding; settings: for inhibition at 31.2 µM: 31.2 micromolar; for inhibition at 500 µM: 500 micromolar
T2 construct: endogenous in cells
Protocol: “X@Y” means that x % inhibition of iodoacetamide probe labeling was observed by treatment of cell lysate with the give compound in each row of the table for 1 h at a concentration of y micromolar. There was consistently high inhibition at C318 in addition to C287, which can be attributed to an allosteric inhibition.

[1] = cell lysate, 1 h, read-out: % inhibition of iodoacetamide probe labeling, Cys287
[2] = read-out: % inhibition of iodoacetamide probe labeling, Cys287

T1 sequence (Q96SW2 whole entry): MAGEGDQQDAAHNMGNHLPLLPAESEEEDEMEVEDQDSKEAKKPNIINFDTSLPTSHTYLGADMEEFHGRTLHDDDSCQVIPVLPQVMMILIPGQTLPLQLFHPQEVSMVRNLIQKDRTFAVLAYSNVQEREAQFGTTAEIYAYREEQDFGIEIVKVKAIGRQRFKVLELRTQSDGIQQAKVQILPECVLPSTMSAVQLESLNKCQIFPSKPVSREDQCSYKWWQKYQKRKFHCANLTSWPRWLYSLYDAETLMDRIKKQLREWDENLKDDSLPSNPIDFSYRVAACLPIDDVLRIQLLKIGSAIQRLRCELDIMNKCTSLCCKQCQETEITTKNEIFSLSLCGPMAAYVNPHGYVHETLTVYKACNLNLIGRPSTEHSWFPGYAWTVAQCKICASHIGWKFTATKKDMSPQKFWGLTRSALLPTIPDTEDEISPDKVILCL
T2 sequence (Q96SW2 whole entry): as above

C=CC(=O)N1CCn2c(nnc2C(F)(F)F)C1
CRBN_C287 inhibition, result in words (CRBN_C287): No activity

C=CC(=O)N1CCC(Oc2ccc(-c3ccc(S(C)(=O)=O)cc3)cc2)CC1
CRBN_C287 inhibition, result in words (CRBN_C287): No activity

C=CC(=O)N1CCC(Oc2cc(C#N)cc(-c3ccccc3OC)c2)C(C)C1 (single isomer, unassigned) [Example 33, 5-((1-acryloyl-3-methylpiperidin-4-yl)oxy)-2′-methoxy-[1,1′-biphenyl]-3-carbonitrile]
IC50 (CRBN_C287): 4.66 µM

C=CC(=O)N1CCC(Oc2cc(C#N)cc(-c3ccccc3OC)c2)C(C)C1 (single isomer, unassigned) [Example 34, 5-((1-acryloyl-3-methylpiperidin-4-yl)oxy)-2′-methoxy-[1,1′-biphenyl]-3-carbonitrile]
IC50 (CRBN_C287): 8.97 µM

C=CC(=O)N1CCC(Oc2cc(C#N)cc(-c3ccccc3OC)c2)C(C)C1 (single isomer, unassigned) [Example 35, 5-((1-acryloyl-3-methylpiperidin-4-yl)oxy)-2′-methoxy-[1,1′-biphenyl]-3-carbonitrile]
IC50 (CRBN_C287): 9.8 µM

C=CC(=O)N1CCC(Oc2cccc(-c3ccc(F)cc3OC)c2)CC1 [Example 1, 1-(4-((4′-fluoro-2′-methoxy-[1,1′-biphenyl]-3-yl)oxy)piperidin-1-yl)prop-2-en-1-one]
inhibition at 500 µM (CRBN_C287): 74.8%

C=CC(=O)N1CCC(Oc2cccc(-c3ccccc3OCC)c2)CC1 [Example 2]
inhibition at 500 µM (CRBN_C287): 59.8%

C=CC(=O)N1CCC(Oc2cccc(-c3ccccc3O)c2)CC1 [Example 3]
inhibition at 500 µM (CRBN_C287): 48.9%

C=CC(=O)N1CCC(Oc2cccc(-c3ccccc3Cl)c2)CC1 [Example 4]
inhibition at 500 µM (CRBN_C287): 64.8%

C=CC(=O)N1CCC(Oc2cc(Cl)cc(-c3ccccc3OC)c2)CC1 [Example 5]
inhibition at 500 µM (CRBN_C287): 88.5%

C=CC(=O)N1CCC(Oc2cc(Cl)cc(-c3ccccc3)c2)CC1 [Example 6]
inhibition at 500 µM (CRBN_C287): 72.2%

C=CC(=O)N1CCC(Oc2cccc(-c3ccccc3OC)c2)CC1 [Example 7]
inhibition at 500 µM (CRBN_C287): 91.2%

C#CC(=O)N1CCC(Oc2cccc(-c3ccccc3)c2)CC1 [Example 8]
inhibition at 500 µM (CRBN_C287): 76.8%

C#CC(=O)N1CCC(Oc2cccc(-c3ccccc3OC)c2)CC1 [Example 9]
inhibition at 500 µM (CRBN_C287): 88.8%

CN(C)C/C=C/C(=O)N1CCC(Oc2cccc(-c3ccccc3)c2)CC1 [Example 10]
inhibition at 500 µM (CRBN_C287): 52.4%

COc1ccccc1-c1cccc(OC2CCN(C(=O)/C=C/CN(C)C)CC2)c1 [Example 11]
inhibition at 500 µM (CRBN_C287): 92.9%

COc1ccccc1-c1cc(C#N)cc(OC2CCN(C(=O)/C=C/CN3CCOCC3)CC2)c1 [Example 12]
inhibition at 500 µM (CRBN_C287): 87.2%

C=CC(=O)N1CCC(Oc2cc(C#N)cc(-c3ccccc3)c2)CC1 [Example 13]
inhibition at 500 µM (CRBN_C287): 81.3%

C=CC(=O)N1CCC(Oc2cc(C#N)cc(-c3ccccc3OC)c2)CC1 [Example 14]
inhibition at 500 µM (CRBN_C287): 94.5%

C=CC(=O)N1CCC(Oc2cc(C#N)cc(-c3ccccc3CC)c2)CC1 [Example 15]
IC50 (CRBN_C287): 22.2 µM

COc1ccccc1-c1cc(C#N)cc(OC2CCN(C(=O)/C(C#N)=C/C(C)C)CC2)c1 [Example 16]
IC50 (CRBN_C287): 0.12 µM

C=CC(=O)N1CCC(Oc2cccc(-c3ccccc3OC)c2Cl)CC1 [Example 18]
inhibition at 500 µM (CRBN_C287): 60.4%

C=CC(=O)N1CCC(Oc2cccc(-c3ccccc3)c2C#N)CC1 [Example 19]
inhibition at 500 µM (CRBN_C287): 68.2%

C=CC(=O)N1CCC(Oc2cccc(-c3ccccc3OC)c2C#N)CC1 [Example 20]
inhibition at 500 µM (CRBN_C287): 57.6%

C=CC(=O)N1CCC(Oc2cc(-c3ccccc3OC)ccc2C(N)=O)CC1 [Example 21]
inhibition at 500 µM (CRBN_C287): 64.6%

C=CC(=O)N1CCC(Oc2cc(C(N)=O)cc(-c3ccccc3OC)c2)CC1 [Example 22]
inhibition at 500 µM (CRBN_C287): 95.2%

C=CC(=O)N1CCC(Oc2cc(OC)cc(-c3ccccc3)c2)CC1 [Example 23]
inhibition at 500 µM (CRBN_C287): 91.1%

C=CC(=O)N1CCC(Oc2cc(OC)cc(-c3ccccc3OC)c2)CC1 [Example 24]
inhibition at 500 µM (CRBN_C287): 89.3%

C=CC(=O)N1CCC(Oc2cc(C(=O)NC)cc(-c3ccccc3OC)c2)CC1 [Example 26]
inhibition at 500 µM (CRBN_C287): 77.4%

C=CC(=O)N1CCC(Oc2cc(-c3ccccc3OC)cnn2)CC1 [Example 27, 1-(4-((5-(2-methoxyphenyl)pyridazin-3-yl)oxy)piperidin-1-yl)prop-2-en-1-one]
IC50 (CRBN_C287): 7.5 µM

C=CC(=O)N1CCC(Oc2cc(-c3ccccc3OC)cc(C#N)n2)CC1 [Example 28, 6-((1-acryloylpiperidin-4-yl)oxy)-4-(2-methoxyphenyl)picolinonitrile]
IC50 (CRBN_C287): 80 µM

C=CC(=O)N1CC[C@H](Oc2cc(C#N)cc(-c3ccccc3OC)c2)[C@@H](F)C1 [Example 29, 5-(((3S,4S)-1-acryloyl-3-fluoropiperidin-4-yl)oxy)-2′-methoxy-[1,1′-biphenyl]-3-carbonitrile]
IC50 (CRBN_C287): 1.25 µM

C=CC(=O)N1CC[C@@H](Oc2cc(C#N)cc(-c3ccccc3OC)c2)[C@H](F)C1 [Example 30, 5-(((3R,4R)-1-acryloyl-3-fluoropiperidin-4-yl)oxy)-2′-methoxy-[1,1′-biphenyl]-3-carbonitrile]
IC50 (CRBN_C287): 0.4 µM

C=CC(=O)N1CC[C@H](Oc2cc(C#N)cc(-c3ccccc3OC)c2)[C@H](F)C1 [Example 31, 5-(((3R,4S)-1-acryloyl-3-fluoropiperidin-4-yl)oxy)-2′-methoxy-[1,1′-biphenyl]-3-carbonitrile]
IC50 (CRBN_C287): 0.29 µM

C=CC(=O)N1CC[C@@H](Oc2cc(C#N)cc(-c3ccccc3OC)c2)[C@@H](F)C1 [Example 32, 5-(((3S,4R)-1-acryloyl-3-fluoropiperidin-4-yl)oxy)-2′-methoxy-[1,1′-biphenyl]-3-carbonitrile]
IC50 (CRBN_C287): 1.49 µM

C=CC(=O)N1CC(Oc2cc(C#N)cc(-c3ccccc3OC)c2)C1 [Example 36, 5-((1-acryloylazetidin-3-yl)oxy)-2′-methoxy-[1,1′-biphenyl]-3-carbonitrile]
IC50 (CRBN_C287): 0.12 µM

C=CC(=O)N1CCC(Sc2cccc(-c3ccccc3OC)c2)CC1 [Example 37, 1-(4-((2′-methoxy-[1,1′-biphenyl]-3-yl)thio)piperidin-1-yl)prop-2-en-1-one]
IC50 (CRBN_C287): 31 µM

C=CC(=O)N1C2CCC1CC(Oc1cc(C#N)cc(-c3ccccc3OC)c1)C2 [Example 38, 5-(((1R,3s,5S)-8-acryloyl-8-azabicyclo[3.2.1]octan-3-yl)oxy)-2′-methoxy-[1,1′-biphenyl]-3-carbonitrile]
inhibition at 500 µM (CRBN_C287): 78%

C=CC(=O)N1[C@@H]2CC[C@H]1C[C@H](Oc1cc(C(N)=O)cc(-c3ccccc3OC)c1)C2 [Example 39, 5-(((1R,3s,5S)-8-acryloyl-8-azabicyclo[3.2.1]octan-3-yl)oxy)-2′-methoxy-[1,1′-biphenyl]-3-carboxamide]
IC50 (CRBN_C287): 53 µM

C#CCOCCOCCOCCOc1ccc(OC)c(-c2cc(C#N)cc(OC3CCN(C(=O)C=C)CC3)c2)c1 [Example 40, 3-[2-methoxy-5-[2-[2-(2-prop-2-ynoxyethoxy)ethoxy]ethoxy]phenyl]-5-[(1-prop-2-enoyl-4-piperidyl)oxy]benzonitrile]
IC50 (CRBN_C287): 2.57 µM

C=CC(=O)N1CCC(Oc2cc(OC(F)(F)F)cc(-c3ccccc3OC)c2)CC1 [Example 41, 1-(4-((2′-methoxy-5-(trifluoromethoxy)-[1,1′-biphenyl]-3-yl)oxy)piperidin-1-yl)prop-2-en-1-one]
IC50 (CRBN_C287): 31 µM

COc1ccccc1-c1cc(C#N)cc(OC2CCN(C(=O)/C(C#N)=C/C(C)(C)C)CC2)c1 [Example A4]
inhibition at 7.8 µM (CRBN Cys287; 7.8 micromolar, cell lysate, 1 h): 96% | inhibition at 31.2 µM (CRBN Cys287; [1]): 97% | inhibition at 500 µM (CRBN Cys287; [1]): 99% | inhibition at 125 µM (CRBN Cys287; [2]): 99%

CC(/C=C(\C#N)C(=O)N1CCC(Oc2cccc(C#N)c2)CC1)c1ccccc1 (centres unmarked) [Example A6]
inhibition at 31.2 µM (CRBN Cys287; [1]): 82% | inhibition at 125 µM (CRBN Cys287; 125 micromolar, cell lysate, 1 h, read-out: % inhibition of iodoacetamide probe labeling, Cys287): 94% | inhibition at 500 µM (CRBN Cys287; [1]): 95% | inhibition at 0.49 µM (CRBN Cys287; [2]): 62% | inhibition at 2 µM (CRBN Cys287; [2]): 77%
